Data as given in patent US11166942B2 (PRAXIS BIOTECH LLC, priority 2018, dated 2021).

How the values were obtained:
[1] = tested on: Balb/c mice with immobilized hind limb, gastrocnemius; assay: Immobilization-induced muscle atrophy; format: in vivo, mouse; conditions: 10 mg/kg oral
Protocol: Wild type eight-weeks-old male Balb/c mice obtained from the vivarium Fundación Ciencia & Vida Chile (Santiago, Chile) were used. Mice were housed in independent plastic cages, fed ad libitum in a room maintained at 25° C. with a 12-h:12-h light:dark cycle.
Twenty-four hours before and during the 3 days of immobilization procedures, animals receive oral administration via feeding tubes (15 gauge) of vehicle (50% Polyethylene glycol 400 (Sigma-Aldrich P3265) in distilled water or 10 mg/kg of test compound formulated in vehicle.
One hindlimb is immobilized with a plastic stick placed over and under the limb and fixed with a medical adhesive bandage. Animals were daily monitored. The immobilization procedure prevents movement of the immobilized leg alone. After 3 days, the animals were sacrificed and gastrocnemius muscle is removed from both hindlimbs, the contralateral, non-immobilized leg being used as an internal control.
For in vivo measurements of protein synthesis, puromycin (Sigma-Aldrich, P8833) is prepared at 0.04 μmol/g body weight in a volume of 200 μl of PBS, and subsequently administered into the animals via intraperitoneal injection, 30 min prior to muscle collection.
Upon collection, muscles were immediately frozen in liquid nitrogen and stored at −80° C. […] Protein concentration in supernatants is determined using BCA Protein Assay Kit (Pierce). […]
Puromycin (12D10) (Merck Millipore), ATF4 (Abcam), Atrogin-1 (ECM Biosciences), MuRF-1 (Santa Cruz Biotechnology) and β-actin (Sigma-Aldrich) antibodies were used as primary antibodies. […] Quantification of protein bands is done by densitometry using ImageJ software.
Expression of ATF4 and the muscle atrophy markers, Atrogin-1 and MuRF-1, of gastrocnemius derived from mobilized and immobilized hind limbs of mice treated with vehicle or compound 58 are shown in FIG. 9C. […] The levels were normalized to β-actin expression and percentage is calculated as the percent relative to the expression of mobile hind limb from control mice (Vehicle) which corresponds to 100%. […]

[2] = tested on: Balb/c mice with denervated hind limb, tibialis anterior; assay: Denervation-induced muscle atrophy; format: in vivo, mouse
Protocol: Wild type eight-weeks-old male Balb/c mice obtained from the vivarium Fundación Ciencia & Vida Chile (Santiago, Chile) were used. Mice were housed in independent plastic cages in a room maintained at 25° C. with a 12-h:12-h light:dark cycle.
After a deeply anesthetized (isoflurane inhaled in medical oxygen), mice were denervated by surgical removal of ˜2 mm of sciatic nerve from one hindlimb. The incisions were closed using sutures. All procedures were performed under sterile conditions and the mice were daily monitored.
After seven days of denervation, animals receive oral administration every day via feeding tubes (15 gauge) of vehicle (50% Polyethylene glycol 400 (Sigma-Aldrich P3265) in distilled water) or 10 mg/kg of compound 58 formulated in vehicle solution.
After 14 days of denervation, animals were sacrificed and tibialis anterior were removed from both hindlimbs. Muscles derived from non-denervated hind limb were used as control.
Upon collection, muscles were immediately frozen in liquid nitrogen and stored at −80° C. The frozen muscles were then homogenized with a T 10 basic ULTRA-TURRAX (IKa) in ice-cold buffer lysis (Cell Signaling 9803) and protease and phosphatase inhibitors (Roche). Lysates were sonicated for 3 min and centrifuged at 13,000 rpm for 20 minutes at 4° C. Protein concentration in supernatants was determined using BCA Protein Assay Kit (Pierce). Equal amount of protein was loaded on SDS-PAGE gels. […]
ATF4 (Abcam), Atrogin-1 (ECM Biosciences), MuRF-1 (Santa Cruz Biotechnology) and R-actin (Sigma-Aldrich) antibodies were used as primary antibodies. […] Quantification of protein bands was done by densitometry using ImageJ software.
Expression of ATF4 and the muscle atrophy markers, Atrogin-1 and MuRF-1, of tibialis anterior derived from control and denervated hind limbs of mice treated with vehicle or compound 58 are shown in FIG. 11A. […] The levels were normalized to pi-actin expression and percentage was calculated as the percent relative to the expression of non-denervated hind limbs from control mice (Vehicle) which corresponds to 100%. […]

O=C(NN1CCN(C[C@@H](O)COc2ccc(Cl)c(F)c2)CC1)c1ccc2cc(Cl)ccc2n1 [Compound 58, (R)-6-chloro-N-(4-(3-(4-chloro-3-fluorophenoxy)-2-hydroxypropyl)piperazin-1-yl)quinoline-2-carboxamide]
reduction: ATF4 expression in gastrocnemius ([1]; vs vehicle (FIG. 9D)) | Atrogin-1 expression in gastrocnemius ([1]; vs vehicle (FIG. 9E)) | MuRF-1 expression in gastrocnemius ([1]; vs vehicle (FIG. 9F)) | ATF4 expression in tibialis anterior ([2]; 10 mg/kg oral every day from day 7 to 14, vs vehicle (FIG. 11B)) | Atrogin-1 expression in tibialis anterior ([2]; 10 mg/kg oral every day from day 7 to 14, vs vehicle (FIG. 11C)) | MuRF-1 expression in tibialis anterior ([2]; 10 mg/kg oral every day from day 7 to 14, vs vehicle (FIG. 11D))
